This note sets out measurements from PMC6376265, “A sequence conserved between CD5 and CD6 binds an FERM domain and exerts a restraint on T‐cell activation” (Immunology, 2018).

One experiment concerns the target T1, radixin FERM domain (Mus musculus, UniProt P26043).
T1 construct: mouse cDNA encoding amino acid residues 1–310, which are 100% identical between mouse and human; GST (cleaved yes); made in house; host or cells: E. coli Rosetta (DE3) pLysS
The experiment can be described thus: Surface plasmon resonance, radixin FERM domain injected over immobilized peptides. The format is binding. The conditions noted are these: 37°; for Binding of radixin FERM domain (in words): non-phosphorylated peptides, Fig. 1a, b; for Kd: equilibrium binding. The source says: (§1) Peptides representing human sequences and biotinylated at the N terminus were obtained from Peptide Protein Research Ltd (Hampshire, UK): CD5 pSDpSDpY, PDNSpSDpSDpYDLHGAQRL; CD5 SDSDY, PDNSSDSDYDLHGAQRL, CD6 pSDpSDpY, GpSDpSDpYEHYDFSAQ; CD6 SDSDY: GSDSDYEHYDFSAQ; control peptide (CD5), HVDNEYSQPPRNS; ICAM‐2 (NP_001093259 FERM binding site (amino acids 251–275): […].16
Recombinant GST‐tagged FERM domain of radixin constructed from mouse cDNA encoding amino acid residues 1–310, which are 100% identical between mouse and human in the pET49b(+) vector was kindly provided by Toshio Hakoshima (Nara Institute of Science and Technology, Japan).16 Radixin FERM was expressed in Rosetta (DE3) pLysS competent cells (Novagen, Madison, WI) and affinity purified using Glutathione Sepharose 4B (GE Healthcare, Chicago, IL). The GST tag was cleaved with HRV 3C protease (Novagen). Cleaved radixin FERM domains were then further purified using size exclusion chromatography.
For surface plasmon resonance analysis, CD5 pSDpSDpY, CD5 SDSDY, CD6 pSDpSDpY and CD6 SDSDY and ICAM‐2 peptides were immobilized on streptavidin‐coated CM5 chips in a BIAcore 3000 machine. Radixin FERM was injected over the immobilized peptides at 37°. Background signals of radixin FERM over a streptavidin‐coated flow cell were subtracted and equilibrium binding data were fitted using a 1 : 1 Langmuir binding model using GRAPHPAD PRISM 7 software.
A general note: In SPR one partner is held on a chip, and binding of the other changes the refractive index at the surface.

The test system of experiment [1] is ERM proteins and NHE‐RF 1 and 2. In words: Pulldown from Jurkat T-cell lysates with immobilized peptides and mass spectrometry: five ERM and NHE-RF proteins together. The format is binding.
Excerpt: as §1
Pulldowns and mass spectrometry have been described elsewhere.6 Briefly, peptides CD5 pSDpSDpY, CD6 pSDpSDpY or a control peptide derived from a region around a more proximal cytoplasmic tyrosine of CD5 were immobilized on magnetic beads and used to isolate interacting proteins from Jurkat T‐cell lysates. Interacting proteins were processed, then digested on a filter, and the peptides were loaded onto the Ultimate 300 RSLCnano high‐performance liquid chromatography (Dionex, Sunnyvale, CA) ‐tandem mass spectrometry Q Exactive Orbitrap machine using a 25 cm by 75 μm inner diameter picotip analytical column (New Objective, Woburn, MA) in the central proteomics facilities at the Sir William Dunn School of Pathology, University of Oxford. Spectra analysis was conducted using the MASCOT search engine.17

Experiment [2] concerns the target T2, radixin FERM domain (amino acid residues 1-310) (mouse, UniProt P26043 1-310).
T2 construct: also called Recombinant monomeric radixin FERM; FERM domain of radixin; source: E. coli Rosetta (DE3) pLysS, purified (Glutathione Sepharose 4B, HRV 3C cleavage, size exclusion chromatography)
The experiment can be described thus: SPR; biotinylated peptides immobilized on streptavidin-coated CM5 chips, BIAcore 3000; radixin FERM injected at 37°; streptavidin flow cell subtracted; equilibrium binding fitted with a 1:1 Langmuir model. The conditions noted are these: both partners purified.

The mark [3] stands for this setting: SPR BIAcore 3000, biotinylated peptides on streptavidin-coated CM5 chip, 1:1 Langmuir fit, CD5 and CD6: three experiments, read-out: KD.

In general, Kd refers to the equilibrium constant for the complex coming apart.

Read-outs that look alike come from different tables or passages of the source. Square brackets hold non-standard residues; d marks the D form. Ends that are not written are not given here. Peptide text beside a SMILES is read from it. * marks the point of attachment. Biotin = O=C1N[C@H]2[C@H](CS[C@H]2CCCCC(=O)*)N1; pY = N[C@@H](Cc1ccc(OP(=O)(O)O)cc1)C(=O)O; pS = N[C@@H](COP(=O)(O)O)C(=O)O

T1 sequence (P26043 1-310): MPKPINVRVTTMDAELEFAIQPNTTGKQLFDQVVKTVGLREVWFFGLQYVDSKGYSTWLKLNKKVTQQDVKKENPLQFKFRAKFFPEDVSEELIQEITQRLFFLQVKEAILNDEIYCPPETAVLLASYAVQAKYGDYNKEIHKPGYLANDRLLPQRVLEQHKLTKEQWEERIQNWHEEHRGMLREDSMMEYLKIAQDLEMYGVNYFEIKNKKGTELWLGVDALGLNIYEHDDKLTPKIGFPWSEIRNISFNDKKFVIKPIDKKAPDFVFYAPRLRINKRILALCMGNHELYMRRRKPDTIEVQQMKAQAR
T2 sequence (P26043 1-310): as above

Consider PDNSSDSDYDLHGAQRL [CD5 SDSDY], for which, at radixin FERM domain (SPR), the “Binding of radixin FERM domain (in words)” value is “weak and did not reach saturation”.

In the case of `CC(C)C[C@H](NC(=O)[C@H](CCCNC(=N)N)NC(=O)[C@H](CCC(N)=O)NC(=O)[C@H](C)NC(=O)CNC(=O)[C@H](Cc1c[nH]cn1)NC(=O)[C@H](CC(C)C)NC(=O)[C@H](CC(=O)O)NC(=O)[C@H](Cc1ccc(OP(=O)(O)O)cc1)NC(=O)[C@H](CC(=O)O)NC(=O)[C@H](COP(=O)(O)O)NC(=O)[C@H](CC(=O)O)NC(=O)[C@H](COP(=O)(O)O)NC(=O)[C@H](CO)NC(=O)[C@H](CC(N)=O)NC(=O)[C@H](CC(=O)O)NC(=O)[C@@H]1CCCN1)C(=O)O` [CD5 pSDpSDpY] (H-PDNS[pS]D[pS]D[pY]DLHGAQRL-OH), the Kd on radixin FERM domain (setting [3]) was 1000 to 2000 nM; on radixin FERM domain (SPR, Fig. 1 panel c, peptides compared with ICAM-2, read-out: KD (Fig. 1c)), 1000 nM. For GSDSDYEHYDFSAQ [CD6 SDSDY], on radixin FERM domain (SPR), the “Binding of radixin FERM domain (in words)” value is “weak and did not reach saturation”.

For `CSCC[C@H](NC(=O)[C@H](CCCNC(=N)N)NC(=O)[C@H](CCC(N)=O)NC(=O)[C@H](CCC(N)=O)NC(=O)[C@H](CCCNC(=N)N)NC(=O)[C@H](CC(C)C)NC(=O)[C@H](Cc1c[nH]cn1)NC(=O)CCCC[C@@H]1SC[C@@H]2NC(=O)N[C@@H]21)C(=O)NCC(=O)N[C@H](C(=O)N[C@@H](Cc1ccc(O)cc1)C(=O)NCC(=O)N[C@H](C(=O)N[C@@H](CCCNC(=N)N)C(=O)N[C@@H](C)C(=O)N[C@@H](C)C(=O)N[C@@H](Cc1c[nH]c2ccccc12)C(=O)N[C@@H](CCCNC(=N)N)C(=O)N[C@@H](CCCNC(=N)N)C(=O)N[C@@H](CC(C)C)C(=O)N1CCC[C@H]1C(=O)N[C@@H](CCC(N)=O)C(=O)N[C@@H](C)C(=O)N[C@@H](Cc1ccccc1)C(=O)N[C@@H](CCCNC(=N)N)C(=O)N1CCC[C@H]1C(=O)O)C(C)C)[C@@H](C)O` [ICAM-2, reference compound] (Biotin-HLRQQRMGTYGVRAAWRRLPQAFRP-OH; N-terminus and C-terminus assumed), on radixin FERM domain (setting [3]), the dissociation constant Kd was not below 200 nM. Regarding “HVDNEYSQPPRNS [control peptide, control peptide derived from a region around a more proximal cytoplasmic tyrosine of CD5]”, in experiment [1], the “Isolation of the five proteins (in words)” value is “not identified”. For `C[C@H](NC(=O)[C@H](CO)NC(=O)[C@H](Cc1ccccc1)NC(=O)[C@H](CC(=O)O)NC(=O)[C@H](Cc1ccc(O)cc1)NC(=O)[C@H](Cc1c[nH]cn1)NC(=O)[C@H](CCC(=O)O)NC(=O)[C@H](Cc1ccc(OP(=O)(O)O)cc1)NC(=O)[C@H](CC(=O)O)NC(=O)[C@H](COP(=O)(O)O)NC(=O)[C@H](CC(=O)O)NC(=O)[C@H](COP(=O)(O)O)NC(=O)CN)C(=O)N[C@@H](CCC(N)=O)C(=O)O` [CD6 pSDpSDpY] (H-G[pS]D[pS]D[pY]EHYDFSAQ-OH), the dissociation constant Kd at radixin FERM domain (setting [3]) is 500 nM.

B1: CD6 pSDpSDpY peptide (peptide)
peptide: Biotin-G[pS]D[pS]D[pY]EHYDFSAQ
notes: also called phosphorylated CD6 SDSDY peptide; source: synthetic peptide; bought: Peptide Protein Research Ltd
Consider B1, for which the Kd in experiment [2] fell in the range of 500 to 2000 nM.
